For data set [1], the system named is Trypanosoma cruzi. The data set is described as follows: Parasitemia monitoring in infected BALB/c mice, acute Chagas disease. The data set is classed as in vivo. To be noted: oral 20 mg/kg per day for 5 days from 9th dpi, versus untreated. As for the experimental part: (§1) Infection was carried out by intraperitoneal inoculation of 5 × 10^5 BTs of T. cruzi per mouse in 0.2 mL PBS [56]. The mice were treated by oral route (~200 µL) once daily for 5 consecutive days. The treatment for mice treated in the acute and chronic phases began when the infection was confirmed (9th day post-infection (dpi)) and was established that the animals had entered the chronic phase (100th dpi), respectively.
(§2) The mice were divided into six groups (n = 3 per group): 0, negative control group (uninfected and untreated mice); I, positive control group (infected and untreated mice); II, BZN group (mice infected and treated with BZN); III, 8 group (mice infected and treated with 8); IV, 10 group (mice infected and treated with 10); V, 15 group (mice infected and treated with 15). The tested compounds and BZN were prepared at 2 mg·mL^−1 in an aqueous suspension vehicle containing 5% (v/v) DMSO and 0.5% (w/v) hydroxypropyl methylcellulose, as previously reported. Therefore, doses of 20 mg·kg^−1 per day were administered for 5 consecutive days, and vehicle only was administered in the negative and positive control groups.
(§3) All in vivo assays for the evaluation of compounds in the acute and chronic CD (Scheme 1)—monitoring of parasitemia, immunosuppression, PCR [59, 60], ELISA [56], and clinical analysis [56]—were performed as previously described. PCR was based on the Spliced Leader (SL) intergenic region sequence of T. cruzi (for detailed description, see literature reported previously).

The test system of data set [2] is Trypanosoma cruzi. The data set is described as follows: Parasitemia reactivation after immunosuppression in BALB/c mice. The data set is classed as in vivo. To be noted: 20 mg/kg per day for 5 days, compared to untreated mice. How it is done:
Secondly, the experimental cure was determined using a double checking widely used in in vivo trypanocidal trials. This double checking—based on immunosuppression and PCR (Figure 2B,C, respectively)—was performed to evaluate the treatment effectiveness and the disease extent in both acute and chronic CD at the end of the in vivo timeline. The mice whose parasitemia and PCR remain negative after immunosuppression are considered cured.
Immunosuppression enhances the reactivation of any residual infection, which is proportional to the parasite survival rate.
as §1, §2, §3

Data set [3] concerns epimastigotes of Trypanosoma cruzi. The data set is described as follows: Flow cytometry of nucleic acid levels (acridine orange). The data set is classed as cell-based. The following applies: IC25 concentrations, 72 h. As for the experimental part: The untreated and treated epimastigotes of T. cruzi described in the NMR analysis were collected by centrifugation, washed three times in PBS and stained with […] rhodamine 123 (Rho) (Sigma-Aldrich) or acridine orange (AO) (Sigma-Aldrich) dyes in 0.5 mL PBS for 20 min at 28 °C [63]. Control epimastigotes with a fully depolarized mitochondrion were obtained by incubation for 40 min with 10 mM KCN prior to Rho loading. Non-stained parasites were also included. After elapsed time, epimastigotes were immediately processed and analyzed by flow cytometry as previously reported.
Figure S2. Nucleic acids levels of Trypanosoma cruzi exposed to benznidazole (BZN) and compounds at […]
Inhibition, in percentage, in the nucleic acids levels with respect to untntreated parasites. Values constitute means of three separate determinations ± standard deviation. Significant differences between untreated and treated parasites for α = 0.05.
(§4) (1 picture or pasted object on this page, not shown here)

For data set [4], the system named is Trypanosoma cruzi bloodstream trypomastigotes (BTs). The data set is described as follows: Screening against bloodstream trypomastigotes (resazurin). The data set is classed as cell-based. The following applies: Trypanosoma cruzi; Table 1; bloodstream trypomastigotes, 24 h treatment + 4 h resazurin; read-out: Activity IC50 Trypomast. How it is done: 2 × 10^6 Bloodstream trypomastigotes (BTs), obtained by cardiac puncture from infected BALB/c mice as previously described, were treated by adding the tested compounds at a concentration range from 50 to 0.1 µM in 96-well microplates (200 µL·well^−1) at 37 °C. After 24 h of treatment, resazurin sodium salt (Sigma-Aldrich) was added to be incubated for further 4 h. Finally, trypanocidal activity was determined following the same procedure as described to assess the trypanocidal activity in the epimastigotes. Each compound concentration was tested in triplicate in three independent experiments.

The format of data set [5] is in vivo. The following applies: BALB/c mice, 20 mg/kg per day for 5 days. As for the experimental part: Finally, biochemical analyses were performed to assess the toxicity associated to the treatment of compound 8. Kidney, heart and liver biochemical markers were measured, including values from uninfected and BZN-treated mice (Table S2). […] The low toxicity allows compound 8 to be tested at higher doses, establishing an improved treatment schedule based on pharmacokinetics in order to reach a total parasite clearance.
as §3

Data set [6] has as its system Trypanosoma cruzi. The data set is described as follows: PCR of seven organs/tissues of treated BALB/c mice (Spliced Leader sequence). The data set is classed as in vivo. As for the experimental part:
To assess the efficacy of potential candidates by confirming the absence of infection in the target locations, PCR was carried out at the end of the in vivo timeline (Figure 2C). PCR was positive in seven organs/tissues for the untreated (control) mice groups in both phases, showing the presence of the typical nested amastigotes of the chronic CD.
as §1, §2, §3
Figure 2 (A) Parasitemia profiles of each group of mice infected with Trypanosoma cruzi and treated during the acute Chagas disease over a period of 55 days: control (untreated), benznidazole (BZN), 8, 10 and 15. Treatment days are represented in grey. […]. (B) Parasitemia reactivation by fresh blood in the chronic Chagas disease after the immunosuppression cycles for each group of mice treated during the acute and chronic phases of the disease: control (untreated), benznidazole (BZN), 8, 10, and 15. […]. (C) PCR analysis of seven organs/tissues with the Trypanosoma cruzi Spliced Leader (SL) intergenic region sequence in the chronic Chagas disease for each group of mice treated during the acute and chronic phases of the disease: (a) control (untreated), (b) benznidazole, (c) 8, (d) 10, and (e) 15.

Data set [7] relates to Trypanosoma cruzi. The data set is described as follows: Anti-T. cruzi IgG (ELISA) and splenomegaly in treated BALB/c mice. The following applies: treated BALB/c mice versus untreated; excluding IgG levels of chronic CD. The data set is classed as in vivo. As for the experimental part: Otherwise, the immune status of the mice was evaluated—through the titer of total anti-T. cruzi IgG and the splenomegaly (Figure S1)—since it is a characteristic linked to the parasite load and the effectiveness ascribed to the potential candidates. […].
as §3
Figure S1. A) Anti-Trypanosoma cruzi immunoglobulin G levels, expressed in absorbance at 492 nm, at different days post-infection (dpi) for each group of mice treated during the acute and chronic phases of Chagas disease: control (untreated), benznidazole (BZN), 8, 10 and 15. Blank and uninfected mice are also […]
included. […] Values are the means of three mice ± standard deviation. (IS) immunosuppression. * Significant differences between untreated and treated mice for α =
0.05. B) Weight percentage of spleens in the chronic Chagas disease for each group of mice treated during the acute and chronic phases of the disease: control (untreated), benznidazole (BZN), 8, 10 and 15. Values are the means of three mice ± standard deviation. In brackets: reduction of splenomegaly in comparison to […]
as §4

In data set [8] the test system is Trypanosoma cruzi intracellular amastigotes. The data set is described as follows: Screening against intracellular amastigotes in Vero cells (Giemsa counting). The data set is classed as cell-based. To be noted: Trypanosoma cruzi; Table 1; intracellular amastigotes in Vero cells, 72 h; read-out: Activity IC50 Amast. How it is done:
Trypanocidal activity against amastigotes was determined according to the literature reported previously. […]. […] Each compound concentration was tested in triplicate in four separate determinations.

The subject of another data set is Mammalian Vero cells. The data set is described as follows: Cytotoxicity test on Vero cells (resazurin). The data set is classed as cell-based. The following applies: Chlorocebus sabaeus; Table 1; Vero cells, 48 h + 24 h resazurin; read-out: Toxicity IC50 Vero Cell. How it is done:
Mammalian Vero cells (EACC No. 84113001), cultured as previously reported, were used to determine the cytotoxicity of the tested compounds [56]. In short, 1.25 × 10^4 Vero cells·mL^−1 were treated by adding the compounds at a concentration range from 400 to 1 µM in 96-well microplates (200 µL·well^−1) at 37 °C for 48 h. Subsequently, resazurin sodium salt (Sigma-Aldrich) was added to be incubated for further 24 h. Finally, cell viability was determined following the same procedure as described to assess the trypanocidal activity in the epimastigotes. Each compound concentration was tested in triplicate in three independent experiments.

Consider `O=C(Cn1ccnc1[N+](=O)[O-])NCc1ccccc1` [BZN, benznidazole, reference compound], for which the “parasitemia levels (counting BTs) during the acute CD” value in the data set on Trypanosoma cruzi [1] is given as “remarkable parasitemia reduction”. The “reactivation of infection after immunosuppression” value with Trypanosoma cruzi [2] (mice treated in acute CD) amounted to 81%; in the data set with Trypanosoma cruzi [2] (mice treated in chronic CD), 68%. Besides, in data set [3], the “reduction in nucleic acid levels with respect to untreated parasites” value is 22.4%. Besides, the IC50 in data set [4] was found to be 12.4 ± 1.1 µM; in data set [8] it was 8.3 ± 0.7 µM; in the data set with Mammalian Vero cells, 80.4 ± 7.1 µM. Moreover, the “kidney, heart and liver biochemical markers” value in [5] is reported as “disturbed 2 days after treatment”. For the same compound, the “negative PCR (parasite-free locations)” value in the data set with Trypanosoma cruzi [6] (mice treated in acute CD) is given as 2/7; in the data set with Trypanosoma cruzi [6] (mice treated in chronic CD) it was 3/7. The “total anti-T. cruzi IgG levels and splenomegaly” value with Trypanosoma cruzi [7] is listed as “significant reduction”.

For the origin of these results see PMC8147293, “Library of Selenocyanate and Diselenide Derivatives as In Vivo Antichagasic Compounds Targeting Trypanosoma cruzi Mitochondrion” (Pharmaceuticals, 2021).
